From patent publication US9233964B2, “Sulfamide piperazine derivatives as protein tyrosine kinase inhibitors and pharmaceutical use therof” (LEO PHARMA A/S, priority 2011, dated 2016)

Columns and labels:
Type in all cases: biochemical
[1] = target: T1, JAK2 (Homo sapiens, UniProt O60674); experiment: JAK kinase assay (HTRF, phosphorylation of synthetic peptide), JAK2; details: catalytic domain, ATP at Km (4 μM); read-out: JAK2 kinase inhibitory activity (EC50)
T1 construct: All four purified enzymes contain only the catalytic domain; His (N); purchased Carna Biosciences, Inc; host or cells: baculovirus expression system
Summary of the method: (§1)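 Catalytic-domain human JAK1 (GST-tagged, aa 850-1154) or His-tagged JAK2, baculovirus-expressed, phosphorylated 1 µM biotinylated TK peptide at Km ATP (JAK1 7 µM, 10 mM MgCl2, 50 nM SEB; JAK2 4 µM, 5 mM MgCl2) in pH 7.0 Hepes, 20-30 min RT. EDTA stop; overnight streptavidin-XL665/cryptate HTRF read.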

[2] = target: T2, JAK3 (Homo sapiens, UniProt P52333); experiment: JAK kinase assay (HTRF, phosphorylation of synthetic peptide), JAK3; details: catalytic domain, ATP at Km (2 μM); read-out: JAK3 kinase inhibitory activity (EC50)
T2 construct: All four purified enzymes contain only the catalytic domain; His (N); purchased Carna Biosciences, Inc; host or cells: baculovirus expression system

[3] = target: T3, TYK2 (Homo sapiens, UniProt P29597); experiment: JAK kinase assay (HTRF, phosphorylation of synthetic peptide), TYK2; details: catalytic domain, ATP at Km (13 μM); read-out: TYK2 kinase inhibitory activity (EC50)
T3 construct: JAK1 (aa 850-1154) and TYK2 (aa 871-1187) are expressed with an N-terminally fused GST-tag; GST (N); purchased Carna Biosciences, Inc; host or cells: baculovirus expression system
T3 sequence (P29597 871-1187): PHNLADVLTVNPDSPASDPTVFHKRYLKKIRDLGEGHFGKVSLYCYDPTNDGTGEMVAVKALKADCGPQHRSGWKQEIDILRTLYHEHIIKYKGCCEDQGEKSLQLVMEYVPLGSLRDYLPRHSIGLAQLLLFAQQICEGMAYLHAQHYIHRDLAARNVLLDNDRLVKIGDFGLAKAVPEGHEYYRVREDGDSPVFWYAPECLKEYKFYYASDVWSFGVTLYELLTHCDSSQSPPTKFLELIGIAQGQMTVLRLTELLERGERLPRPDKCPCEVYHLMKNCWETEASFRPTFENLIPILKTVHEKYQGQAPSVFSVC
Summary of the method: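 1 µM biotinylated TK peptide at Km ATP in pH 7.0 Hepes, 20-30 min RT. EDTA stop; overnight streptavidin-XL665/cryptate HTRF read.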

[4] = target: T4, JAK1 (Homo sapiens, UniProt P23458); experiment: JAK kinase assay (HTRF, phosphorylation of synthetic peptide), JAK1; details: catalytic domain, ATP at Km (7 μM); read-out: JAK1 kinase inhibitory activity (EC50)
T4 construct: JAK1 (aa 850-1154) and TYK2 (aa 871-1187) are expressed with an N-terminally fused GST-tag; GST (N); purchased Carna Biosciences, Inc; host or cells: baculovirus expression system
Summary of the method: as §1

T1 sequence (O60674 849-1124 limits assumed): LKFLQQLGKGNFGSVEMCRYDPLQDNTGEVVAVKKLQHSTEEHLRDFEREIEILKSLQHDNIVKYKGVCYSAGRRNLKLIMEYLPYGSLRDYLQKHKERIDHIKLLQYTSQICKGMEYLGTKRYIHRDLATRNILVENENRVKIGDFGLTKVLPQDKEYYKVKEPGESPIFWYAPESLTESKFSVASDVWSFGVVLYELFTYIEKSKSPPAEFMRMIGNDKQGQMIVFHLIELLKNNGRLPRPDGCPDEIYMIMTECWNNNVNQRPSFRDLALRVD
T2 sequence (P52333 822-1111 limits assumed): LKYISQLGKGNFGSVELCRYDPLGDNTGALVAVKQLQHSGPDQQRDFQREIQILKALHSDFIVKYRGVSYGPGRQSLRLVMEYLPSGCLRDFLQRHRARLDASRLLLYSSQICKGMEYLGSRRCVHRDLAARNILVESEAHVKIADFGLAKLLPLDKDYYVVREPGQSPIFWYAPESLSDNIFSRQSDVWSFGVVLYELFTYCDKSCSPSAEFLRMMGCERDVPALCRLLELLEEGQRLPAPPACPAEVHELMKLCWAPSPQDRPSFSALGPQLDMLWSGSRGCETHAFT
T4 sequence (P23458 850-1154): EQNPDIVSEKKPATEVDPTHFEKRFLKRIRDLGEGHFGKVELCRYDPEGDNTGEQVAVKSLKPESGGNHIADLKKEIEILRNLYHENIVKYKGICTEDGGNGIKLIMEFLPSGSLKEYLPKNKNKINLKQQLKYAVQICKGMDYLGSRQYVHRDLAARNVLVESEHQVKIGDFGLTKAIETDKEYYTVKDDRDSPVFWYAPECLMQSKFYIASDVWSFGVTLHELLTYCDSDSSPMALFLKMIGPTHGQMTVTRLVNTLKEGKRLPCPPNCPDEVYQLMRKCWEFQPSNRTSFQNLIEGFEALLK

| Structure (SMILES) | EC50 [1] [µM] | EC50 [2] [µM] | EC50 [3] [µM] | EC50 [4] [µM] |
| --- | --- | --- | --- | --- |
| CN(CC1CCCN(C(=O)CCO)C1)S(=O)(=O)N1CCN(c2ncnc3[nH]ccc23)CC12CC2 (centres unmarked) [Example 154, N-[[1-(3-hydroxypropanoyl)-3-piperidyl]methyl]-N-methyl-5-(7H-pyrrolo[2,3-d]pyrimidin-4-yl)-5,8-diazaspiro[2.5]octane-8-sulfonamide] | < 0.1 | < 0.1 | 0.1 to 0.5 | < 0.1 |
| CN(C[C@@H]1CC(F)(F)CN1C(=O)CCO)S(=O)(=O)N1CCN(c2ncnc3[nH]ccc23)CC12CC2 [Example 155, N-[[(2S)-4,4-difluoro-1-(3-hydroxypropanoyl)pyrrolidin-2-yl]methyl]-N-methyl-5-(7H-pyrrolo[2,3-d]pyrimidin-4-yl)-5,8-diazaspiro[2.5]octane-8-sulfonamide] | < 0.1 | < 0.1 | < 0.1 | < 0.1 |
| CN(C[C@@H]1CC(F)(F)CN1C(=O)CCC#N)S(=O)(=O)N1CCN(c2ncnc3[nH]ccc23)CC12CC2 [Example 156, N-[[(2S)-1-(3-cyanopropanoyl)-4,4-difluoro-pyrrolidin-2-yl]methyl]-N-methyl-5-(7H-pyrrolo[2,3-d]pyrimidin-4-yl)-5,8-diazaspiro[2.5]octane-8-sulfonamide] | < 0.1 | < 0.1 | < 0.1 | < 0.1 |
| CN(C[C@@H]1CC(F)(F)CN1C=O)S(=O)(=O)N1CCN(c2ncnc3[nH]ccc23)CC12CC2 [Example 157, N-[[(2S)-4,4-difluoro-1-formyl-pyrrolidin-2-yl]methyl]-N-methyl-5-(7H-pyrrolo[2,3-d]pyrimidin-4-yl)-5,8-diazaspiro[2.5]octane-8-sulfonamide] | < 0.1 | < 0.1 | < 0.1 | < 0.1 |
| CN(CC1CCN(S(C)(=O)=O)CC1)S(=O)(=O)N1CCN(c2ncnc3[nH]ccc23)CC12CC2 [Example 158, N-methyl-N-[(1-methylsulfonyl-4-piperidyl)methyl]-5-(7H-pyrrolo[2,3-d]pyrimidin-4-yl)-5,8-diazaspiro[2.5]octane-8-sulfonamide] | < 0.1 | < 0.1 | 0.1 to 0.5 | < 0.1 |
| CN(CC1CCN(S(=O)(=O)CCCC#N)CC1)S(=O)(=O)N1CCN(c2ncnc3[nH]ccc23)CC12CC2 [Example 159, N-[[1-(3-cyanopropylsulfonyl)-4-piperidyl]methyl]-N-methyl-5-(7H-pyrrolo[2,3-d]pyrimidin-4-yl)-5,8-diazaspiro[2.5]octane-8-sulfonamide] | < 0.1 | < 0.1 | 0.1 to 0.5 | < 0.1 |
| CN(CC1CCCN(S(C)(=O)=O)C1)S(=O)(=O)N1CCN(c2ncnc3[nH]ccc23)CC12CC2 (centres unmarked) [Example 160, N-methyl-N-[(1-methylsulfonyl-3-piperidyl)methyl]-5-(7H-pyrrolo[2,3-d]pyrimidin-4-yl)-5,8-diazaspiro[2.5]octane-8-sulfonamide] | < 0.1 | < 0.1 | 0.1 to 0.5 | < 0.1 |
| CN(CC1CCCN(S(=O)(=O)CCCC#N)C1)S(=O)(=O)N1CCN(c2ncnc3[nH]ccc23)CC12CC2 (centres unmarked) [Example 161, N-[[1-(3-cyanopropylsulfonyl)-3-piperidyl]methyl]-N-methyl-5-(7H-pyrrolo[2,3-d]pyrimidin-4-yl)-5,8-diazaspiro[2.5]octane-8-sulfonamide] | < 0.1 | 0.1 to 0.5 | > 0.5 | < 0.1 |
| CN(C[C@@H]1CC(F)(F)CN1S(C)(=O)=O)S(=O)(=O)N1CCN(c2ncnc3[nH]ccc23)CC12CC2 [Example 162, N-[[(2S)-4,4-difluoro-1-methylsulfonyl-pyrrolidin-2-yl]methyl]-N-methyl-5-(7H-pyrrolo[2,3-d]pyrimidin-4-yl)-5,8-diazaspiro[2.5]octane-8-sulfonamide] | < 0.1 | < 0.1 | < 0.1 | < 0.1 |
| CN(C[C@@H]1CC(F)(F)CN1S(=O)(=O)CCCC#N)S(=O)(=O)N1CCN(c2ncnc3[nH]ccc23)CC12CC2 [Example 163, N-[[(2S)-1-(3-cyanopropylsulfonyl)-4,4-difluoro-pyrrolidin-2-yl]methyl]-N-methyl-5-(7H-pyrrolo[2,3-d]pyrimidin-4-yl)-5,8-diazaspiro[2.5]octane-8-sulfonamide] | < 0.1 | < 0.1 | < 0.1 | < 0.1 |
| CN(C[C@@H]1CC(F)(F)CN1S(=O)(=O)CC1CC1)S(=O)(=O)N1CCN(c2ncnc3[nH]ccc23)CC12CC2 [Example 164, N-[[(2S)-1-(cyclopropylmethylsulfonyl)-4,4-difluoro-pyrrolidin-2-yl]methyl]-N-methyl-5-(7H-pyrrolo[2,3-d]pyrimidin-4-yl)-5,8-diazaspiro[2.5]octane-8-sulfonamide] | < 0.1 | < 0.1 | < 0.1 | < 0.1 |
| CN(CC1CCS(=O)(=O)C1)S(=O)(=O)N1CCN(c2ncnc3[nH]ccc23)CC12CC2 (centres unmarked) [Example 165, N-[(1,1-dioxothiolan-3-yl)methyl]-N-methyl-5-(7H-pyrrolo[2,3-d]pyrimidin-4-yl)-5,8-diazaspiro[2.5]octane-8-sulfonamide] | < 0.1 | < 0.1 | 0.1 to 0.5 | < 0.1 |
| N#CCN(CC1CCS(=O)(=O)C1)S(=O)(=O)N1CCN(c2ncnc3[nH]ccc23)CC12CC2 (centres unmarked) [Example 166, N-(cyanomethyl)-N-[(1,1-dioxothiolan-3-yl)methyl]-5-(7H-pyrrolo[2,3-d]pyrimidin-4-yl)-5,8-diazaspiro[2.5]octane-8-sulfonamide] | < 0.1 | < 0.1 | < 0.1 | < 0.1 |
| O=S1(=O)CCC(CN(CCO)S(=O)(=O)N2CCN(c3ncnc4[nH]ccc34)CC23CC3)C1 (centres unmarked) [Example 167, N-[(1,1-dioxothiolan-3-yl)methyl]-N-(2-hydroxyethyl)-5-(7H-pyrrolo[2,3-d]pyrimidin-4-yl)-5,8-diazaspiro[2.5]octane-8-sulfonamide] | < 0.1 | < 0.1 | 0.1 to 0.5 | < 0.1 |
| CN(CC1CCS(=O)(=O)CC1)S(=O)(=O)N1CCN(c2ncnc3[nH]ccc23)CC12CC2 [Example 168, N-[(1,1-dioxothian-4-yl)methyl]-N-methyl-5-(7H-pyrrolo[2,3-d]pyrimidin-4-yl)-5,8-diazaspiro[2.5]octane-8-sulfonamide] | < 0.1 | < 0.1 | < 0.1 | < 0.1 |
| N#CCN(CC1CCS(=O)(=O)CC1)S(=O)(=O)N1CCN(c2ncnc3[nH]ccc23)CC12CC2 [Example 169, N-(cyanomethyl)-N-[(1,1-dioxothian-4-yl)methyl]-5-(7H-pyrrolo[2,3-d]pyrimidin-4-yl)-5,8-diazaspiro[2.5]octane-8-sulfonamide] | < 0.1 | < 0.1 | < 0.1 | < 0.1 |
| O=S1(=O)CCC(CN(CCO)S(=O)(=O)N2CCN(c3ncnc4[nH]ccc34)CC23CC3)CC1 [Example 170, N-[(1,1-dioxothian-4-yl)methyl]-N-(2-hydroxyethyl)-5-(7H-pyrrolo[2,3-d]pyrimidin-4-yl)-5,8-diazaspiro[2.5]octane-8-sulfonamide] | < 0.1 | < 0.1 | < 0.1 | < 0.1 |
| N#CCCN(CC#N)S(=O)(=O)N1CCN(c2ncnc3[nH]ccc23)CC12CC2 [Example 171, N-(2-cyanoethyl)-N-(cyanomethyl)-5-(7H-pyrrolo[2,3-d]pyrimidin-4-yl)-5,8-diazaspiro[2.5]octane-8-sulfonamide] | < 0.1 | < 0.1 | < 0.1 | < 0.1 |
| CC(=O)N(CC1CCS(=O)(=O)C1)S(=O)(=O)N1CCN(c2ncnc3[nH]ccc23)CC12CC2 (centres unmarked) [Example 172, N-[(1,1-dioxothiolan-3-yl)methyl]-N-[[5-(7H-pyrrolo[2,3-d]pyrimidin-4-yl)-5,8-diazaspiro[2.5]octan-8-yl]sulfonyl]acetamide] | < 0.1 | < 0.1 | 0.1 to 0.5 | < 0.1 |
| CC(=O)N(CC1CCS(=O)(=O)CC1)S(=O)(=O)N1CCN(c2ncnc3[nH]ccc23)CC12CC2 [Example 173, N-[(1,1-dioxothian-4-yl)methyl]-N-[[5-(7H-pyrrolo[2,3-d]pyrimidin-4-yl)-5,8-diazaspiro[2.5]octan-8-yl]sulfonyl]acetamide] | < 0.1 | < 0.1 | 0.1 to 0.5 | < 0.1 |
